The record followed here is PMC9686989, “Exploration of Molecular Structure, DFT Calculations, and Antioxidant Activity of a Hydrazone Derivative” (Antioxidants, 2022).

A short description of series [1]: ABTS antioxidant assay (radical scavenging). As to conditions: radical cation ABTS•+ in methanol, 60 min in the dark, absorbance at 745 nm, triplicate. Here is the method:
(§1) The antioxidant activity of compound 2 was measured using ABTS antioxidant assay and DPPH radical scavenging assay using ascorbic acid and quercetin as standard compounds. The antioxidant activity of compound 1 was not determined here, as it was isolated as a by-product in trace amounts. Furthermore, this compound is reported, and thus, it was believed unnecessary to pursue its antioxidant capacity.
Equal amounts of 7 mM ABTS (2,2′-azino-bis(3-ethylbenzothiazoline-6-sulphonic acid)) stock solution and 2.45 mM potassium persulfate stock solution were mixed and stored at 0 °C for 12 h in the dark to produce the radical cation ABTS^•+. The prepared radical cation ABTS^•+ solution was diluted with methanol so that the UV absorption value was below 1.000 at 745 nm. The compound 2 and reference standards, including ascorbic acid and quercetin, were dissolved in methanol to obtain 2000 µM stock solutions. Then, these solutions were diluted with methanol to 1000, 500, 250, 125, 62.5, 31.3, 15.6, 7.81, 3.91, 1.95, 0.977, 0.488, 0.244, 0.122, and 0.0610 µM solutions. Then, 0.9 mL of the ABTS^•+ solution and 0.1 mL of solutions of compound 2 or standard materials prepared above were mixed in a test tube and kept in the dark for 60 min. After 60 min incubation, the UV absorption at 745 nm was measured. All experiments were performed in triplicate. The radical scavenging rates were obtained from these UV absorption data, and the resulting IC50 values were calculated using Origin 8 (Northampton, MA, USA). Percentage (%) of ABTS radical scavenging = [(A0 − A1)/A0] × 100(1) where A0 was the absorbance of the control, and A1 was the absorbance of the treated sample.

Series [2] in a line: DPPH radical scavenging assay. As to conditions: DPPH in methanol, 30 min in the dark, absorbance at 517 nm, triplicate. Here is the method: as §1
The 100 µM DPPH stock solution was prepared in absolute methanol. The 2.0 mM stock solutions of compound 2 and the reference standards ascorbic acids and quercetin were also prepared in absolute methanol. Then, these solutions were diluted with methanol to 1000, 500, 250, 100, 50, 25, 12.5, 6.25, 3.13, 1.56, 0.781, 0.391, 0.195, 0.0977, 0.0488, 0.0244, and 0.0122 µM solutions. Afterwards, 0.7 mL of the DPPH solution and 0.7 mL of solutions of compound 2 or standard materials prepared above were mixed in a test tube and kept in the dark for 30 min. After 30 min incubation, the UV absorption at 517 nm was measured. All experiments were performed in triplicate. The radical scavenging rates were obtained from these UV absorption data, and the resulting IC50 values were calculated using Origin 8. Percentage (%) of DPPH radical scavenging = [(A0 − A1)/A0] × 100(2) where A0 was the absorbance of the control, and A1 was the absorbance of the treated sample.
Background: The DPPH test is a chemical assay of radical scavenging.

Another series has as its system A549 cells. The series can be described thus: Cell cytotoxicity assay (MTT). The series is classed as cell-based. How it is done:
The A549 cells ([…]) were used in the cytotoxicity assay (MTT (3-(4,5-dimethylthiazol-2-yl)-2,5-diphenyltetrazolium bromide) assay) of compound 2. The A549 cells were grown in an incubator at 37 °C and 5% CO2 using DMEM media containing 2 mM glutamine and 10% FBS. Cells were trypsinized for seeding at 70–90% of cell confluency. About 7000 A549 cells per well were seeded in 96-well plates and incubated for 24 h at 37 °C in the presence of 5% CO2. Then, the media was replaced with the media containing compound 2 at various concentrations, including 0.1, 10, 25, and 50 µM, and incubated for another 24 h. Dimethyl sulfoxide (DMSO) was used as a vehicle. […] After 24 h incubation, the media was replaced with 200 µL of fresh media containing MTT solution and incubated for four hours at 37 °C. The absorbance was recorded at 570 nm to evaluate the cell viability. Each experiment was executed three times. Origin software was used for the data analysis.

What is called IC50 is the concentration that gives 50% inhibition. In the case of `O=C1O[C@H]([C@@H](O)CO)C(O)=C1O` [Ascorbic acid, ascorbic acid], the half-inhibitory concentration (IC50) is 13.2 ± 0.45 µM in series [1] and 28.7 ± 0.65 µM in series [2].

As to `C/C(=N\N=C(/C)c1ccc(O)cc1O)c1ccc(O)cc1O` [Compound 2, 4,4′-((1E,1′E)-hydrazine-1,2-diylidenebis(ethan-1-yl-1-ylidene))bis(benzene-1,3-diol)], the “decrease in cell growth compared to the control” value in the series on A549 cells (24 h treatment, 50 µM, MTT, DMSO control) is listed as about 40%. The “cytotoxicity (cell death)” value in the series with A549 cells (24 h treatment, 0.1–25 µM, MTT, DMSO control) is recorded as “did not show significant cell death”. For the same compound, in the series on A549 cells (at 25 µM), the cell cytotoxicity entry was “did not show any cell cytotoxicity”. For the same compound, the cytotoxicity result with A549 cells (below 25 µM) is recorded as “almost no cytotoxicity”. Besides, the IC50 stood at 4.3 ± 0.21 µM in series [1] and 81.06 ± 0.72 µM in series [2].

As to `O=c1c(O)c(-c2ccc(O)c(O)c2)oc2cc(O)cc(O)c12` [Quercetin, quercetin], the values for the half-inhibitory concentration (IC50) in series [1] and in series [2] were 3.57 ± 0.54 µM and 4.02 ± 0.058 µM, respectively.
